Read-outs that look alike come from different tables or passages of the source.
Assays:
[1] = cited from earlier work; for uptake by hepatocytes: during excretion; for Clearance (route) / Clearance (time; half-life): in vivo
serum albumin = serum albumin (Homo sapiens, UniProt P02768); details: cited from earlier work
[2] = Relaxivity measurements (T1 and T2 relaxation times, Bruker minispec mq60/mq20); format: physicochemical; details: aqueous solution, 37° C.
Procedure: T1 and T2 relaxation times were measured at the STTARR Innovation Centre in Toronto, Canada using a Bruker minispec mq60, and at the Bruker Showroom in Milton, Canada using a Bruker minispec mq20. Measurements were carried out on a series of 6 aqueous dilutions between 0-5 mM.
The T1 and T2 relaxation times of the 8 soluble, pure complexes were measured in aqueous solution at 37° C., at both 20 and 60 MHz.

[3] = test system: primary rat renal proximal tubule epithelial cells (RPTECs); experiment: In vitro toxicity, MTT assay; format: cell-based; details: for IC50: rat RPTECs, MTT, read-out: Inhibitory concentration IC50; for cytotoxicity: 10 h time point, compared with 4 h
Procedure: Gadodiamide (Selleckchem, Lot #02) was used as the reference compound. It is one of the 8 Gd(III)-based MRI agents approved for use in Canada (trade name: Omniscan™).
The test articles and reference compound were weighed and dissolved in the incubation medium to give the highest test concentration of 30 mM. The solution was filter sterilized and diluted to the remaining test concentrations of 10 mM, 3.3 mM, 1.1 mM, 0.36 mM, 0.12 mM and 0.04 mM.
Cryopreserved primary rat renal proximal tubule epithelial cells (RPTECs) (ScienCell Research Laboratories, Carlsbad, Calif.) were used for the study. The rat RPTECs were thawed completely at 37° C., and transferred to epithelial cell medium (ScienCell Research Laboratories, Carlsbad, Calif.) followed by plating in poly-L-lysine coated 96-well plates. The RPTECs were allowed to recover and grow in a cell culture incubator (37° C., humidified atmosphere of 5% carbon dioxide and 95% air) for 3 additional days with a medium change every alternate day.
Following 3 days of plating, the RPTECs were washed once with serum free epithelial cell medium (ScienCell Research Laboratories, Carlsbad, Calif.) followed by treatment with the test, reference or control articles for 2, 4, 10 or 24 h. All treatments were performed in triplicate.
Cellular viability and metabolic activity were assessed by using the 3-(4,5-dimethylthiazol-2-yl)-2,5-diphenyl tetrazolium bromide (MTT) uptake assay. A 10× stock of the MTT dye was prepared in phosphate buffered saline (PBS). An aliquot of dye was added 2 hrs before the intended time point to achieve a final 1× concentration, after which incubation (37° C., humidified atmosphere of 5% carbon dioxide and 95% air) continued until the desired time point. For the 2 hr time point, the aliquot of dye was added immediately after the test articles. Following incubation, all media was aspirated from the wells and the plates were allowed to dry. The resulting formazan crystals were dissolved in DMSO using an orbital shaker, and the absorbance at 570 nm was measured using a Victor ^3V multilabel plate reader (reference wavelength=650 nm).
The inhibitory concentration (IC50, the concentration resulting in 50% toxicity) was determined by plotting log concentration vs. relative viability, followed by non-linear regression of the curve using Graph Pad Prism 5.0.
An in vitro toxicity study was performed in order to evaluate the cytotoxic potential of several of the agents in primary rat renal proximal tubule epithelial cells (RPTECs), prior to performing in vivo studies. The Mn^II and Gd^III complexes of L1, L2 and L6 (complexes 1, 2, 5, and 7-9) were evaluated at seven concentrations (30 mM, 10 mM, 3.3 mM, 1.1 mM, 0.36 mM, 0.12 mM and 0.04 mM) after 2, 4, 10 and 24 hours of treatment in rat RPTECs. The MTT assay was used as an indicator of viability. The nephrotoxic potential of the test articles was compared to the toxicity observed in the presence of the approved agent Gadodiamide. The results are summarized in Table 4, where the inhibitory concentration (IC50, the concentration resulting in 50% toxicity) was determined by plotting log concentration vs. relative viability.

Sequence of serum albumin (P02768 25-609): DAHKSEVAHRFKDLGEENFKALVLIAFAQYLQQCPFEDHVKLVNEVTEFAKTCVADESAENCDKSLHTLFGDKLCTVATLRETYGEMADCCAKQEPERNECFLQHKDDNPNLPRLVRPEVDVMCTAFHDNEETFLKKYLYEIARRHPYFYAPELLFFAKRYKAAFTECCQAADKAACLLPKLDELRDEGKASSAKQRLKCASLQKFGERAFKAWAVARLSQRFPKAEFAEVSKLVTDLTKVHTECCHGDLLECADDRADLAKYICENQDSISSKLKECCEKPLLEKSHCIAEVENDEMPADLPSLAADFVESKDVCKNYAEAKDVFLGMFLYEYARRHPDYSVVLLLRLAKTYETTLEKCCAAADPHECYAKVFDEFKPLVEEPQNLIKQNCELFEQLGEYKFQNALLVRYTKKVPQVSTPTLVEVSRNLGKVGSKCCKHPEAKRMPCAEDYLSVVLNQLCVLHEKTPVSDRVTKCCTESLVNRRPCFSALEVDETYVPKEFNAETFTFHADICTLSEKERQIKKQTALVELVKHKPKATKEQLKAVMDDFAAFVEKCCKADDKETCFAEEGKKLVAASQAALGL

CNC[C@H](O)[C@@H](O)[C@H](O)[C@H](O)CO.CNC[C@H](O)[C@@H](O)[C@H](O)[C@H](O)CO.O=C([O-])CN(CCN(CC(=O)[O-])CC(=O)O)CCN(CC(=O)O)C(COCc1ccccc1)C(=O)[O-].[Gd+3] (stereo not shown) [Multihance, gadobenate]
uptake by hepatocytes [1]: taken up by hepatocytes during excretion
Clearance (route) [1]: renal/hepatic
Clearance (time; half-life) [1]: 1.2 to 2 h

CC(O)CN1CCN(CC(=O)[O-])CCN(CC(=O)[O-])CCN(CC(=O)[O-])CC1.[Gd+3] (stereo not shown) [Prohance, gadoteridol]
Clearance (route) [1]: renal
Clearance (time; half-life) [1]: 1.57 h

O=C([O-])CN(CCN(CC(=O)[O-])C[C@H](COP(=O)([O-])OC1CCC(c2ccccc2)(c2ccccc2)CC1)N(CC(=O)[O-])CC(=O)[O-])CC(=O)[O-].[Gd+3].[H+].[H+].[H+] [Ablavar or Vasovist, gadofosveset]
Clearance (route) [1]: renal/hepatic
Clearance (time; half-life) [1]: 18.5 h
binding to serum albumin (serum albumin): selectively binds to the blood protein serum albumin

O=C([O-])CN1CCN(CC(=O)[O-])CCN([C@H](CO)[C@H](O)CO)CCN(CC(=O)[O-])CC1.[Gd+3] (racemic) [Gadavist, gadobutrol]
Clearance (route) [1]: renal

CC1=NCCNCCNCCN=C(C)c2cccc1n2.O.O.O.[Cl-].[Cl-].[Cl-].[Gd+3] [Compound 7, [GdL1Cl3].3H2O]
r1 relaxivity ([2]; 20 MHz): 6.43 s⁻¹ mM⁻¹
r1 relaxivity ([2]; 60 MHz): 5.58 s⁻¹ mM⁻¹
IC50 ([3]; 2 hr treatment): 8150 µM
IC50 ([3]; 4 hr treatment): 3370 µM
IC50 ([3]; 10 hr treatment): 8530 µM
cytotoxicity [3]: exhibited a slight reduction in toxicity
IC50 ([3]; 24 hr treatment): 920 µM

CCOc1ccc(CC(CN(CCN(CC(=O)[O-])CC(=O)[O-])CC(=O)[O-])N(CC(=O)[O-])CC(=O)[O-])cc1.[Gd+3].[Na+].[Na+] (stereo not shown) [Eovist or Primovist, gadoxetate]
uptake by hepatocytes [1]: taken up by hepatocytes during excretion
Clearance (route) [1]: renal/hepatic

CC1=Nc2ccccc2OCCOCCOc2ccccc2N=C(C)c2cccc1n2.O.O.[Cl-].[Cl-].[Mn+2] [Compound 5, [MnL6Cl2].2H2O]
r1 relaxivity ([2]; 20 MHz): 7.22 s⁻¹ mM⁻¹
r1 relaxivity ([2]; 60 MHz): 2.97 s⁻¹ mM⁻¹
IC50 ([3]; 2 hr treatment): 1250 µM
IC50 ([3]; 4 hr treatment): 670 µM
IC50 ([3]; 10 hr treatment): 1390 µM
cytotoxicity [3]: exhibited a slight reduction in toxicity
IC50 ([3]; 24 hr treatment): 210 µM

CNC(=O)CN(CCN(CCN(CC(=O)[O-])CC(=O)NC)CC(=O)[O-])CC(=O)[O-].[Gd+3] [Gadodiamide, gadodiamide, reference compound]
Clearance (route) [1]: renal
Clearance (time; half-life) [1]: 1.30 h
nephrotoxicity ([3]; 2 and 4 h of treatment, 0.04-30 mM): did not show significant nephrotoxicity
IC50 ([3]; 10 hr treatment): > 30000 µM
cytotoxicity [3]: showed more toxicity than earlier time points
nephrotoxic effects ([3]; 24 h of treatment): exhibiting the least nephrotoxic effects
IC50 ([3]; 24 hr treatment): 31000 µM

O=C([O-])CN(CCN(CC(=O)[O-])CC(=O)O)CCN(CC(=O)[O-])CC(=O)O.[Gd+3] [Magnevist, gadopentetate]
Clearance (route) [1]: renal
Clearance (time; half-life) [1]: 1.60 h

CNC[C@H](O)[C@@H](O)[C@H](O)[C@H](O)CO.O=C([O-])CN1CCN(CC(=O)[O-])CCN(CC(=O)O)CCN(CC(=O)[O-])CC1.[Gd+3] [Dotarem, gadoterate]
Clearance (route) [1]: renal

COCCNC(=O)CN(CCN(CCN(CC(=O)[O-])CC(=O)NCCOC)CC(=O)[O-])CC(=O)[O-].[Gd+3] [OptiMARK, gadoversetamide]
Clearance (route) [1]: renal
Clearance (time; half-life) [1]: 1.73 h

From patent US10377783B2, “Methods and compounds for enhancing contrast in magnetic resonance imaging (MRI)” (priority 2015, dated 2019)
